The values below come from ChEMBL document CHEMBL1201862, “PubChem BioAssay data set” (2004).

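Each compound was tested at five concentrations against cells in 96-well plates for 48 hours. GI50 marks 50% less growth.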 Calls of active or inactive are those of the source. Rule as the data show it: active = GI50 up to about 1.1 µM and inactive = higher.

Among the test systems are MCF7; KM12; RXF 393; MDA-MB-231; SW-620; BT-549; HOP-92; NCI/ADR-RES; OVCAR-3; DU-145; HL-60; HCC 2998; COLO 205; HCT-116; UACC-257; OVCAR-5; NCI-H23; UO-31; OVCAR-4; SNB-75.
Holding throughout (assay): inhibition of tumour cell growth, NCI panel, 48 h

`O=C(O)CCCc1ccc2ccccc2c1`: the GI50 in the assay on MCF7, in the assay with KM12, with RXF 393, in the assay with MDA-MB-231, in the assay on SW-620 and in the assay on BT-549 was > 100 µM (inactive) each time. Besides, the GI50 in the assay on HOP-92, with NCI/ADR-RES, with OVCAR-3, with DU-145, with HL-60 and in the assay on HCC 2998 was > 100 µM (inactive) in each case. The GI50 in the assay with COLO 205, with HCT-116, with UACC-257, with OVCAR-5, in the assay on NCI-H23 and with UO-31 was > 100 µM (inactive) in each case. Further, in the assay with OVCAR-4, the GI50 was > 100 µM (inactive).

Take `CCN(CC)CCCNC(=O)c1cc(-c2nccn2C)nc2ccccc12`: the GI50 in the assay with MCF7, with KM12, with RXF 393, in the assay on MDA-MB-231, in the assay on SW-620 and with BT-549 was > 100 µM (inactive) in each case. Further, the GI50 in the assay with SNB-75 was 57.7 µM (inactive); in the assay with HOP-92 it was > 100 µM (inactive); with NCI/ADR-RES, > 100 µM (inactive); in the assay with DU-145, > 100 µM (inactive); with HL-60, > 100 µM (inactive); in the assay with HCC 2998, > 100 µM (inactive). The GI50 in the assay with COLO 205 is > 100 µM (inactive); in the assay with HCT-116, > 100 µM (inactive); in the assay on UACC-257 it was > 100 µM (inactive); in the assay with OVCAR-5, > 100 µM (inactive); with NCI-H23, > 100 µM (inactive); with UO-31 it was 50.2 µM (inactive). Also, the GI50 with OVCAR-4 was 61.2 µM (inactive).

For the compound `Cc1sc(Nc2ccccc2[N+](=O)[O-])c(C#N)c1C`, the GI50 was 94.2 µM (inactive) in the assay with MCF7; > 100 µM (inactive) in the assay on KM12; 5.12 µM (inactive) with RXF 393; 19.6 µM (inactive) in the assay with MDA-MB-231; 19.5 µM (inactive) in the assay with BT-549; 12.1 µM (inactive) in the assay with SNB-75. For the same compound, the GI50 in the assay on HOP-92 was 18.7 µM (inactive); in the assay with NCI/ADR-RES it was 16.8 µM (inactive); in the assay on OVCAR-3 it was 19.8 µM (inactive); in the assay on DU-145, 65.2 µM (inactive); in the assay on HCC 2998, > 100 µM (inactive); in the assay on COLO 205 it was > 100 µM (inactive). For the same compound, the GI50 in the assay on HCT-116 is 17.5 µM (inactive); with UACC-257, > 100 µM (inactive); with OVCAR-5, 23 µM (inactive); in the assay with NCI-H23, 13.9 µM (inactive); with UO-31, > 100 µM (inactive); with OVCAR-4, 43.6 µM (inactive).

Regarding `BrCC(Br)(c1ccccc1)c1ccccc1-c1cc(-c2ccccc2)cc(-c2ccccc2)n1` (stereo unspecified), the GI50 with MCF7 is 1.09 µM (active); with KM12, 3.13 µM (inactive); in the assay with RXF 393 it was 2 µM (inactive); in the assay on MDA-MB-231, 3.15 µM (inactive); with SW-620, 3.16 µM (inactive); in the assay with BT-549, 2.51 µM (inactive). The GI50 in the assay on SNB-75 is 1.27 µM (inactive); in the assay with HOP-92, 2.48 µM (inactive); in the assay on NCI/ADR-RES, 33.9 µM (inactive); in the assay on DU-145 it was 4.12 µM (inactive); in the assay on HL-60, 1.07 µM (active); with HCC 2998, 2.05 µM (inactive). Besides, the GI50 in the assay on COLO 205 is 1.43 µM (inactive); in the assay on HCT-116, 2.81 µM (inactive); with UACC-257 it was 2.04 µM (inactive); in the assay on OVCAR-5 it was 3.67 µM (inactive); in the assay on NCI-H23, 3.94 µM (inactive); in the assay with UO-31 it was 10.7 µM (inactive). The GI50 in the assay on OVCAR-4 is 4.05 µM (inactive).

For the compound `O=C1c2ccccc2C(=O)N1CCCC(=O)n1cc(F)c(=O)[nH]c1=O`, the GI50 was 6.21 µM (inactive) in the assay on MCF7; 6.73 µM (inactive) with KM12; > 47.4 µM (inactive) in the assay with RXF 393; > 100 µM (inactive) with MDA-MB-231; > 72.6 µM (inactive) in the assay on SW-620; > 100 µM (inactive) with BT-549. The GI50 in the assay with SNB-75 is 37 µM (inactive); with HOP-92 it was > 21.4 µM (inactive); in the assay with NCI/ADR-RES, 7.98 µM (inactive); in the assay with OVCAR-3, > 22.7 µM (inactive); with DU-145 it was 10.1 µM (inactive); in the assay with HL-60, 7.78 µM (inactive). For the same compound, the GI50 in the assay on HCC 2998 is 0.82 µM (active); in the assay on COLO 205 it was 6.62 µM (inactive); in the assay with HCT-116 it was 6.24 µM (inactive); in the assay with UACC-257, > 75.2 µM (inactive); in the assay with NCI-H23 it was 11.9 µM (inactive); in the assay on UO-31, 11.4 µM (inactive). The GI50 in the assay on OVCAR-4 was > 100 µM (inactive).

For the compound `CC(=O)C(I(OS(=O)(=O)c1ccc(C)cc1)c1ccccc1)=P(c1ccccc1)(c1ccccc1)c1ccccc1`, the GI50 in the assay on MCF7 is 35.8 µM (inactive); with KM12, 16.2 µM (inactive); in the assay with RXF 393, 42.1 µM (inactive); in the assay with MDA-MB-231, 23.4 µM (inactive); with BT-549 it was 18.9 µM (inactive); in the assay with HOP-92 it was 10.5 µM (inactive). In addition, the GI50 is > 100 µM (inactive) in the assay on NCI/ADR-RES; 20.2 µM (inactive) in the assay with OVCAR-3; 18.8 µM (inactive) in the assay with DU-145; 30.3 µM (inactive) with HL-60; 18 µM (inactive) with HCC 2998; 17.1 µM (inactive) in the assay with COLO 205. Further, the GI50 in the assay on HCT-116 was 21.2 µM (inactive); with UACC-257, 22.6 µM (inactive); in the assay with OVCAR-5, 23 µM (inactive); with NCI-H23, 18.1 µM (inactive); in the assay on UO-31, > 100 µM (inactive); with OVCAR-4, 14.8 µM (inactive).

As to `Nc1nc(I)nc2c1ncn2C1OC(COS(N)(=O)=O)C(O)C1O` (stereo unspecified), the GI50 with MCF7 is < 0.01 µM (active); in the assay with KM12, < 0.01 µM (active); in the assay with RXF 393, 0.0148 µM (active); in the assay on MDA-MB-231 it was < 0.01 µM (active); with SW-620 it was 0.0235 µM (active); with BT-549, < 0.0108 µM (active). Besides, the GI50 with SNB-75 was < 0.01 µM (active); in the assay with HOP-92, < 0.0142 µM (active); in the assay with NCI/ADR-RES it was < 0.01 µM (active); with OVCAR-3 it was < 0.01 µM (active); in the assay on DU-145 it was < 0.01 µM (active); with HCC 2998 it was < 0.0127 µM (active). The GI50 is < 0.01 µM (active) in the assay on COLO 205; < 0.01 µM (active) in the assay on HCT-116; 0.0163 µM (active) with UACC-257; < 0.01 µM (active) in the assay with OVCAR-5; < 0.01 µM (active) in the assay with NCI-H23; 0.0187 µM (active) in the assay with UO-31. Besides, the GI50 in the assay with OVCAR-4 is < 0.01 µM (active).

Take `CC(OC(C)(C)C)[C@H](NC(=O)OC(C)(C)C)C(=O)O` (stereo partly specified): the GI50 was > 100 µM (inactive) with MCF7; > 100 µM (inactive) in the assay on KM12; > 10 µM (inactive) in the assay on RXF 393; > 100 µM (inactive) in the assay with MDA-MB-231; > 100 µM (inactive) in the assay with SW-620; > 100 µM (inactive) in the assay with BT-549. For the same compound, the GI50 with HOP-92, in the assay with NCI/ADR-RES, with OVCAR-3, with DU-145, in the assay with HL-60 and in the assay on HCC 2998 was > 100 µM (inactive) in each case. The GI50 in the assay on COLO 205, with HCT-116, with UACC-257, with OVCAR-5, with NCI-H23 and with UO-31 was > 100 µM (inactive) throughout. Also, in the assay with OVCAR-4, the GI50 was > 100 µM (inactive).

`NC(=O)N=C(N(Cc1ccccc1)Cc1ccccc1)N(Cc1ccccc1)Cc1ccccc1`: the GI50 in the assay on MCF7 is 7.29 µM (inactive); with KM12 it was > 100 µM (inactive); with RXF 393 it was > 100 µM (inactive); in the assay on MDA-MB-231 it was 15.3 µM (inactive); in the assay with SW-620, > 24.3 µM (inactive); with BT-549, > 100 µM (inactive). The GI50 with SNB-75 was 13.3 µM (inactive); in the assay on HOP-92, 4.3 µM (inactive); with NCI/ADR-RES it was > 100 µM (inactive); with OVCAR-3, 5.08 µM (inactive); in the assay on DU-145, > 100 µM (inactive); in the assay on HCC 2998, 5.22 µM (inactive). Also, the GI50 in the assay with HCT-116 is 3.37 µM (inactive); in the assay with OVCAR-5, > 100 µM (inactive); with NCI-H23, 9.42 µM (inactive); with UO-31 it was > 100 µM (inactive); in the assay on OVCAR-4 it was 6.22 µM (inactive).

In the case of `Cc1cc(S(=O)(=O)/N=C(\NN)NNc2cccc(C(F)(F)F)n2)c(S)cc1Cl`, the GI50 with MCF7 is > 10 µM (inactive); in the assay on KM12, 16.9 µM (inactive); in the assay with RXF 393, 29 µM (inactive); in the assay on MDA-MB-231 it was 31.4 µM (inactive); in the assay on SW-620, 18.5 µM (inactive); in the assay with BT-549, 13.3 µM (inactive). For the same compound, the GI50 in the assay on SNB-75 is 14.6 µM (inactive); in the assay with HOP-92 it was 4.21 µM (inactive); in the assay on NCI/ADR-RES it was 19.8 µM (inactive); in the assay on OVCAR-3, 22.1 µM (inactive); with DU-145, 18.5 µM (inactive); in the assay on HL-60, 27.4 µM (inactive). Moreover, the GI50 was 16.5 µM (inactive) in the assay with HCC 2998; 19.5 µM (inactive) in the assay with COLO 205; 21.3 µM (inactive) in the assay on HCT-116; 32.6 µM (inactive) in the assay with UACC-257; 14.9 µM (inactive) in the assay on OVCAR-5; 18.9 µM (inactive) in the assay with UO-31. Further, the GI50 in the assay with OVCAR-4 is 14.4 µM (inactive).
